From ChEMBL document CHEMBL1146001, “Thiothalidomides: novel isosteric analogues of thalidomide with enhanced TNF-alpha inhibitory activity” (J Med Chem, 2003) come the findings set out here.

In assay [1] the test system is TNF-alpha (Homo sapiens). Briefly: Compound was tested for the inhibition of LPS-induced TNF-alpha production in human peripheral blood mononuclear cells (PBMC) at 30 uM.
The subject of assay [2] is TNF-alpha (Homo sapiens). The assay can be described thus: Compound was tested for the inhibition of LPS-induced TNF-alpha production in human peripheral blood mononuclear cells (PBMC).

The inhibition is the drop in the measured response relative to a control, in per cent. Read a high inhibition as a response far below the control. Usually IC50 stands for the midpoint of a concentration-inhibition curve.

Molecule `O=C1NC(=S)c2ccccc21` showed an inhibition at 30 µM in assay [1] of 34%. Also, in assay [2], the IC50 was greater than 30 µM.

With `O=C(O)CCC(C(=O)O)N1C(=O)c2ccccc2C1=S` (stereo not drawn), in assay [1], the inhibition at 30 µM turned out to be 20%. For the same molecule, in assay [2], the IC50 was greater than 30 µM.

In turn, `O=C1c2ccccc2C(=S)N1C1CCC(=S)NC1=S` (stereo not drawn) showed an inhibition at 30 µM in assay [1] of 79%. In addition, in assay [2], the IC50 stood at 6 µM.

With `O=C1CCC(N2C(=O)c3ccccc3C2=S)C(=O)N1` (stereo not drawn), in assay [1], the inhibition at 30 µM came out at 23%. In addition, in assay [2], the IC50 was greater than 30 µM.

In assay [1], `S=C1CCCC(=S)N1` came in with an inhibition at 30 µM of 75%. The same molecule displayed an IC50 in assay [2] of 8 µM.

`O=C1NC(=S)CCC1N1C(=O)c2ccccc2C1=S` (stereo not drawn) came in with an inhibition at 30 µM in assay [1] of 61%. For the same molecule, in assay [2], the IC50 is 11 µM.

Regarding `COC(=O)CCC(C(=O)OC)N1C(=O)c2ccccc2C1=S` (stereo not drawn), the inhibition at 30 µM in assay [1] was 56%. The same molecule displayed an IC50 in assay [2] of 20 µM.

`O=C1c2ccccc2C(=S)N1C1C=CCCC1` (stereo not drawn): the inhibition at 30 µM in assay [1] came out at 85%. The molecule further registered an IC50 in assay [2] of 16 µM.

As for `O=C1NC(=S)CCC1N1C(=O)c2ccccc2C1=O` (stereo not drawn), in assay [1], at 30 µM the inhibition was 31%. This molecule also had an IC50 in assay [2] greater than 30 µM.

`O=C1CCCC(=S)N1` returned an inhibition at 30 µM in assay [1] of 15%. Moreover, the half-inhibitory concentration (IC50) in assay [2] is greater than 30 µM.

Consider `S=C1NC(=S)c2ccccc21`, for which, in assay [1], the inhibition at 30 µM was determined as 95%. The same molecule came in with an IC50 in assay [2] of 3 µM.

Regarding `O=C1c2ccccc2C(=O)N1C1CCC(=S)NC1=S` (stereo not drawn), 30 µM produced 52% inhibition in assay [1]. Besides, in assay [2], half-maximal inhibition (IC50) was put at 20 µM.

Molecule `S=C1c2ccccc2C(=S)N1C1C=CCCC1` (stereo not drawn) displayed an inhibition at 30 µM in assay [1] of 86%. For the same molecule, in assay [2], the IC50 is 15 µM.

In assay [1], `COC(=O)CCC(C(=O)OC)N1C(=S)c2ccccc2C1=S` (stereo not drawn) displayed an inhibition at 30 µM of 85%. Besides, the IC50 in assay [2] stood at 10 µM.
